Test results published in patent US5872115A, “2-ureido-benzamide derivatives” (Grelan Pharmaceutical Co. Ltd., priority 1995, dated 1999).
Like-named read-outs stand apart in the source and are kept apart here.

Tests used:
THP-1 microsomal ACAT [1] = target: T1, THP-1 microsomal ACAT (Homo sapiens, UniProt P35610); experiment: In vitro test using THP-1 microsome (ACAT inhibition); format: biochemical
T1 construct: ACAT enzyme fraction was prepared from microsome of human leukemia THP-1 cell; endogenous in cells; host or cells: THP-1 (human leukemia), microsomes
T1 sequence (P35610 1-550): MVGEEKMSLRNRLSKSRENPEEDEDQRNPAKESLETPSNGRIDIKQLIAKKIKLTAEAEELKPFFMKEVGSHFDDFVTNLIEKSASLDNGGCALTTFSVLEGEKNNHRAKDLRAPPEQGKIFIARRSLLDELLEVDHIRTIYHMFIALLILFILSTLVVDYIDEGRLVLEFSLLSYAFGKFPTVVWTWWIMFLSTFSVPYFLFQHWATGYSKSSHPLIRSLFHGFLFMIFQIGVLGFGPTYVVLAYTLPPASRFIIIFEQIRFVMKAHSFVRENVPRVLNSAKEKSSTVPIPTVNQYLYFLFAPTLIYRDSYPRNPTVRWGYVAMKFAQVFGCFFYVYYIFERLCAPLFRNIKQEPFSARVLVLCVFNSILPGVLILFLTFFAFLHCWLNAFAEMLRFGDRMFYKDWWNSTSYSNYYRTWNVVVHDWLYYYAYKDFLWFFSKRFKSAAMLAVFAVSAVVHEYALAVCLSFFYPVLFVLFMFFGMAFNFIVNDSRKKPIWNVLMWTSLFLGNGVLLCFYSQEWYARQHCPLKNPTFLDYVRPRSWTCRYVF
Procedure: (4) In Vitro Test Using THP-1 Microsome
Then, the reaction was initiated by the addition of 5 nmoles of labeled [^14 C] oleoyl-CoA dissolved in 20 μl of said phosphate buffer solution containing BSA and the reaction was stopped by the addition of 20 μl of 2N HCl after 10 minutes. [^14 C] cholesterol-oleate formed was separated by thin-layer chromatography and the radioactivity was counted with liquid scintillation counter.
ACAT inhibitory activities of the test compounds were shown as IC50 values.

THP-1 microsomal ACAT [2] = target: T1, THP-1 microsomal ACAT; experiment: Bioavailability assessment of ACAT inhibitors by their ex vivo activity (serum of dosed mice on THP-1 microsomal ACAT); format: in vivo
Procedure: (5) Bioavailability Assessment of ACAT Inhibitors by Their <<ex vivo>> Activity
[…] Blood samples were collected 0.5, 1, 1.5, 2, 6 hour postdose. Serum were harvested after gentle centrifugation and stored at -20.
The following day, 10 μl serum were preincubated at 37 for 5 minutes with 20 μl of THP-1 microsomal ACAT and then incubated 10 minutes with 20 μl of radiolabeled oleoyl-CoA as described above in method (4). The serum is used instead of the drug solution.
ACAT inhibitory activities of the test compounds were shown as maximum inhibition percentages (Imax).

[3] = female mice, 30 mg/kg per os, 1% CMC-Na 0.2% Tween 80, maximum inhibition by serum
[4] = THP-1 microsome, read-out: IC50 THP1 microsome
[5] = tested at 100 mg/kg in a suspension of 0.5% CMC-Na (footnote *)

Row | SMILES | Imax Ex vivo (THP-1 microsomal ACAT [2]; [3]) | IC50 (THP-1 microsomal ACAT [1]; [4]) | Imax Ex vivo (THP-1 microsomal ACAT [2]; [5]) | IC50 (THP-1 microsomal ACAT [1])
1 | CCCCNC(=O)Nc1ccc(OC(=O)NCCCC)cc1C(=O)NCC1CCN(C(c2ccccc2)c2ccccc2)CC1 [77 (b), 5-n-butylcarbamyloxy-2-(N'-n-butylureido)-N-[(1-diphenylmethylpiperidin-4-yl)methyl]benzamide] | 41.37% | – | – | 50 nM
2 | CCCCNC(=O)Nc1ccc([S+](C)[O-])cc1C(=O)NCC1CCN(C(c2ccccc2)c2ccccc2)CC1 (stereo not shown) [111 (a)] | 62.01% | 100 nM | – | –
3 | CCCCNC(=O)Nc1ccc(N(CC)CC)cc1C(=O)NCC1CCN(C(c2ccccc2)c2ccccc2)CC1 [Example 62, 2-(N'-n-Butylureido)-5-diethylamino-N-[(1-diphenylmethylpiperidin-4-yl)-methyl]-benzamide] | 62.57% | 30 nM | – | –
4 | CCCCNC(=O)Nc1ccc(-n2ccnc2)cc1C(=O)NCC1CCN(C(c2ccccc2)c2ccccc2)CC1 [Example 64, 2-(N'-n-Butylureido)-5-(imidazol-1-yl)-N-[(1-diphenylmethylpiperidin-4-yl)-methyl]-benzamide] | 43.14% | 200 nM | – | –
5 | CCCCNC(=O)Nc1ccc(N2CCCC2)cc1C(=O)NCC1CCN(C(c2ccccc2)c2ccccc2)CC1 [Example 65, 2-(N'-n-Butylureido)-5-(pyrrolidin-1-yl)-N-[(1-diphenylmethylpiperidin-4-yl)methyl]-benzamide] | 37.43% | 60 nM | – | –
6 | CCCCNC(=O)Nc1ccc(OC)cc1C(=O)NCC1CCN(C(c2ccccc2)c2ccccc2)CC1 [Example 67, 2-(N'-Butylureido)-5-methoxy-N-[(1-diphenylmethylpiperidin-4-yl)methyl]-benzamide] | 51.97% | 50 nM | – | –
7 | CCCCNC(=O)Nc1ccc(OCC)cc1C(=O)NCC1CCN(C(c2ccccc2)c2ccccc2)CC1 [Example 68, 2-(N'-n-Butylureido)-5-ethoxy-N-[(1-diphenylmethylpiperidin-4-yl)methyl]-benzamide] | 50.51% | 30 nM | – | –
8 | CCCCNC(=O)Nc1ccc(OCC2CC2)cc1C(=O)NCC1CCN(C(c2ccccc2)c2ccccc2)CC1 [Example 69, 2-(N'-n-Butylureido)-5-cyclopropylmethoxy-N-[(1-diphenylmethylpiperidin-4-yl)methyl]-benzamide] | 40.11% | 30 nM | – | –
9 | CCCCNC(=O)Nc1ccc(SC)cc1C(=O)NCC1CCN(C(c2ccccc2)c2ccccc2)CC1 [Example 73] | 38.17% | 20 nM | – | –
10 | CCCCCCCNC(=O)Nc1ccc(-n2ccnc2)cc1C(=O)NCC1CCN(C(c2ccccc2)c2ccccc2)CC1 [Example 79, 2(N'-n-Heptylureido)-5-(imidazol-1-yl)-N-[(1-diphenylmethylpiperidin-4-yl)methyl]-benzamide] | – | 220 nM | 63.26% | –
11 | CCCCCCCCCCNC(=O)Nc1ccc(N(C)C)cc1C(=O)NCC1CCN(C(c2ccccc2)c2ccccc2)CC1 [Example 80, 2-(N'-n-Decylureido)-5-dimethylamino-N-[(1-diphenylmethylpiperidin-4-yl)methyl]-benzamide] | – | 170 nM | – | –
12 | CCCCCCCNC(=O)Nc1ccc(OC)cc1C(=O)NCC1CCN(C(c2ccccc2)c2ccccc2)CC1 [Example 81, 2-(N'-n-Heptylureido)-5-methoxy-N-[(1-diphenylmethylpiperidin-4-yl)methyl]benzamide] | – | 40 nM | 74.11% | –
13 | CCCCCCCNC(=O)Nc1ccc(N2CCOCC2)cc1C(=O)NCC1CCN(C(c2ccccc2)c2ccccc2)CC1 [Example 82, 2-(N'-n-Heptylureido)-5-(morpholin-4-yl)-N-[(1-diphenylmethylpiperidin-4-yl)methyl]-benzamide] | 50.15% | 100 nM | – | –
14 | CCCCCCCNC(=O)Nc1ccc(N2CCCCC2)cc1C(=O)NCC1CCN(C(c2ccccc2)c2ccccc2)CC1 [Example 83, 2-(N'-n-Heptylureido)-5-(piperidin-1-yl)-N-[(1-diphenylmethylpiperidin-4-yl)methyl]benzamide] | – | 270 nM | – | –
15 | CCCCCCCNC(=O)Nc1ccc(-n2cccn2)cc1C(=O)NCC1CCN(C(c2ccccc2)c2ccccc2)CC1 [Example 84, 2-(N'-n-Heptylureido)-5-(pyrazol-1-yl)-N-[(1-diphenylmethylpiperidin-4-yl)-methyl]-benzamide] | 5.75% | 100 nM | – | –
16 | CCCCCCCNC(=O)Nc1ccc(N2CCCC2)cc1C(=O)NCC1CCN(C(c2ccccc2)c2ccccc2)CC1 [Example 85, 2-(N'-n-Heptylureido)-5-(pyrrolidin-1-yl)-N-[(1-diphenylmethylpiperidin-4-yl)methyl]-benzamide] | 11.33% | 60 nM | – | –

More lines, main results first:

Row | Imax Ex vivo (THP-1 microsomal ACAT [2]; [3]) | IC50 (THP-1 microsomal ACAT [1]; [4]) | Imax Ex vivo (THP-1 microsomal ACAT [2]; [5]) | SMILES | IC50 (THP-1 microsomal ACAT [1])
17 | – | 40 nM | – | CCCCCCCNC(=O)Nc1ccc(OCC)cc1C(=O)NCC1CCN(C(c2ccccc2)c2ccccc2)CC1 [Example 86, 5-Ethoxy-2-(N'-n-heptylureido)-N-[(1-diphenylmethylpiperidin-4-yl)methyl]-benzamide] | –
18 | – | 200 nM | – | CCCCCCCNC(=O)Nc1ccc(N(CC)CC)cc1C(=O)NCC1CCN(C(c2ccccc2)c2ccccc2)CC1 [Example 87, 5-Diethylamino-2-(N'-n-heptylureido)-N-[(1-diphenylmethylpiperidin-4-yl)-methyl]-benzamide] | –
19 | – | 60 nM | – | CCCCCCCNC(=O)Nc1ccc(N(C)C)cc1C(=O)NCC1CCCN(C(c2ccccc2)c2ccccc2)C1 (stereo not shown) [Example 89, 2-(N'-n-Heptylureido)-5-dimethylamino-N-[(1-diphenylmethylpiperidin-3-yl)methyl]-benzamide] | –
20 | 61.47% | 80 nM | – | CCCCCCCNC(=O)Nc1ccc(N(C)C(C)=O)cc1C(=O)NCC1CCN(C(c2ccccc2)c2ccccc2)CC1 [Example 91, 5-(N-Acetyl-N-methyl)amino-2-(N'-n-heptylureido)-N-[(1-diphenylmethylpiperidin-4-yl)-methyl]benzamide] | –
21 | – | 300 nM | – | CCCCCCCNC(=O)Nc1ccc(N(C)C)cc1C(=O)NCC1CCN(C(c2ccc(Cl)cc2)c2ccc(Cl)cc2)CC1 [Example 92, 2-(N'-n-Heptylureido)-5-dimethylamino-N-[[1-bis(4-chlorophenyl)methylpiperidin-4-yl]-methyl]benzamide] | –
22 | 24.17% | 40 nM | – | CCCCCCCNC(=O)Nc1ccc(N(C)C)cc1C(=O)NCC1CCN(C(c2ccc(F)cc2)c2ccc(F)cc2)CC1 [Example 93, 2-(N'-n-Heptylureido)-5-dimethylamino-N-[[1-bis(4-fluorophenyl)methylpiperidin-4-yl]-methyl]benzamide] | –
23 | 28.35% | 100 nM | – | CCCCCCCNC(=O)Nc1ccc(N(C)C)cc1C(=O)NCC1CCN(C(c2ccc(OC)cc2)c2ccc(OC)cc2)CC1 [Example 94, 2-(N'-n-Heptylureido)-5-dimethylamino-N-[[1-bis(4-methoxyphenyl)methylpiperidin-4yl]methyl]benzamide] | –
24 | – | 90 nM | – | COCCCNC(=O)Nc1ccc(N(C)C)cc1C(=O)NCC1CCN(C(c2ccccc2)c2ccccc2)CC1 [Example 103, 2-(N'-3-Methoxypropylureido)-5dimethylamino-N-[(1-diphenylmethylpiperidin-4-yl)methyl]benzamide] | –
25 | – | 100 nM | – | COCCCNC(=O)Nc1ccc(N2CCOCC2)cc1C(=O)NCC1CCN(C(c2ccccc2)c2ccccc2)CC1 [Example 104, 2-(N'-3-Methoxypropylureido)-5-(morpholin-4-yl)-N-[(1-diphenylmethylpiperidin-4-yl)methyl]benzamide] | –
26 | – | 100 nM | – | O=C(NCC1CC1)Nc1ccc(N2CCOCC2)cc1C(=O)NCC1CCN(C(c2ccccc2)c2ccccc2)CC1 [Example 105, 2-(N'-Cyclopropylmethylureido)-5-(morpholin-4-yl)-N-[(1-diphenylmethylpiperidin-4-yl)methyl]benzamide] | –
27 | – | 220 nM | – | CCCCCCCNC(=O)Nc1ccc(C(C)C)cc1C(=O)NCC1CCN(C(c2ccccc2)c2ccccc2)CC1 [Example 106, 2-(N'-n-Heptylureido)-5-isopropyl-N-[(1-diphenylmethylpiperidin-4-yl)methyl]benzamide] | –
28 | – | 400 nM | – | CCCCNC(=O)Nc1ccc(N)cc1C(=O)NCC1CCN(C(c2ccccc2)c2ccccc2)CC1 [Example 109, 5-Amino-2-(N'-n-butylureido)-N-[(1-diphenylmethylpiperidin-4-yl)methyl]-benzamide] | –
29 | – | 200 nM | – | CCCCNC(=O)Nc1ccc(NC)cc1C(=O)NCC1CCN(C(c2ccccc2)c2ccccc2)CC1 [Example 112, 5-Methylamino-2-(N'-n-butylureido)-N-[(1-diphenylmethylpiperidin-4-yl)methyl]benzamide] | –
